Source: the supplement of paper PMC11451515

Tested on: SEM cells
Assay: cell viability relative to DMSO control; higher = less cytotoxic
Conditions: 48 h
In short: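 Library compounds in DMSO were pin-dosed into 1536-well plates (5 μl) holding NOMO1 or SEM (500 cells/well) or P12-Ichikawa (1000 cells/well) leukemia cells, across an 11-point threefold series of 47 μM to 0.79 nM. Each cell line had been adapted for at least four passages in each medium. CellTiter-Glo One luminescence was read after 48 h at 37°C. Viability is the per-plate percentage relative to DMSO wells, with cell-free wells as background.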

[1] = HPLM + 10% dialyzed FBS, 0.000781 µM
[2] = HPLM + 10% dialyzed FBS, 0.00234 µM
[3] = HPLM + 10% dialyzed FBS, 0.00702 µM
[4] = HPLM + 10% dialyzed FBS, 0.0211 µM
[5] = HPLM + 10% dialyzed FBS, 0.0632 µM
[6] = HPLM + 10% dialyzed FBS, 0.19 µM
[7] = HPLM + 10% dialyzed FBS, 0.569 µM
[8] = HPLM + 10% dialyzed FBS, 1.71 µM
[9] = HPLM + 10% dialyzed FBS, 5.12 µM
[10] = HPLM + 10% dialyzed FBS, 15.4 µM
[11] = HPLM + 10% dialyzed FBS, 46.1 µM
[12] = RPMI 5 mM glucose + 10% FBS, 0.000781 µM
[13] = RPMI 5 mM glucose + 10% FBS, 0.00234 µM
[14] = RPMI 5 mM glucose + 10% FBS, 0.00702 µM
[15] = RPMI 5 mM glucose + 10% FBS, 0.0211 µM
[16] = RPMI 5 mM glucose + 10% FBS, 0.0632 µM
[17] = RPMI 5 mM glucose + 10% FBS, 0.19 µM
[18] = RPMI 5 mM glucose + 10% FBS, 0.569 µM
[19] = RPMI 5 mM glucose + 10% FBS, 1.71 µM
[20] = RPMI 5 mM glucose + 10% FBS, 5.12 µM
[21] = RPMI 5 mM glucose + 10% FBS, 15.4 µM
[22] = RPMI 5 mM glucose + 10% FBS, 46.1 µM
[23] = RPMI 5 mM glucose + 10% dialyzed FBS, 0.000781 µM
[24] = RPMI 5 mM glucose + 10% dialyzed FBS, 0.00234 µM
[25] = RPMI 5 mM glucose + 10% dialyzed FBS, 0.00702 µM
[26] = RPMI 5 mM glucose + 10% dialyzed FBS, 0.0211 µM
[27] = RPMI 5 mM glucose + 10% dialyzed FBS, 0.0632 µM
[28] = RPMI 5 mM glucose + 10% dialyzed FBS, 0.19 µM
[29] = RPMI 5 mM glucose + 10% dialyzed FBS, 0.569 µM
[30] = RPMI 5 mM glucose + 10% dialyzed FBS, 1.71 µM
[31] = RPMI 5 mM glucose + 10% dialyzed FBS, 5.12 µM
[32] = RPMI 5 mM glucose + 10% dialyzed FBS, 15.4 µM
[33] = RPMI 5 mM glucose + 10% dialyzed FBS, 46.1 µM

Structure (SMILES)	cell viability [1] [%]	cell viability [2] [%]	cell viability [3] [%]	cell viability [4] [%]	cell viability [5] [%]	cell viability [6] [%]	cell viability [7] [%]	cell viability [8] [%]	cell viability [9] [%]	cell viability [10] [%]	cell viability [11] [%]	cell viability [12] [%]	cell viability [13] [%]	cell viability [14] [%]	cell viability [15] [%]	cell viability [16] [%]	cell viability [17] [%]	cell viability [18] [%]	cell viability [19] [%]	cell viability [20] [%]	cell viability [21] [%]	cell viability [22] [%]	cell viability [23] [%]	cell viability [24] [%]	cell viability [25] [%]	cell viability [26] [%]	cell viability [27] [%]	cell viability [28] [%]	cell viability [29] [%]	cell viability [30] [%]	cell viability [31] [%]	cell viability [32] [%]	cell viability [33] [%]
CN1\C=N/C2=CC=C(NC3=CC(=CC=C3C)NC(=O)C4=CC(=CC=C4)C(C)(C)C#N)C=C2C1=O	101	93.6	112	117	107	101	87.4	95.5	74.8	79.4	44.1	113	122	107	114	113	105	101	96.7	87.7	84.2	31.9	93.6	97.9	92.4	115	101	107	101	102	70	75.8	34.9
CN(C)CC(C)(C)CNc1nn2c(-c3ccccc3)nnc2cc1C1CCC1	79.6	98.8	100	98	92.1	114	5.79	101	92.3	82.7	62.4	92.9	116	104	127	110	125	6.41	106	103	81.1	73.1	68.1	123	101	113	105	110	5.36	102	106	71.8	77.8
C=C[C@H]1CN2CCC1C[C@@H]2C(O)c1ccnc2ccc(OC)cc12 (some centres not stated)	118	146	116	22.4	131	115	121	111	126	113	111	67.5	77.6	104	11.3	99.7	96.1	82	77	94.6	84.6	63	121	123	138	23.6	129	121	112	127	131	132	97.5
COC1=C(OCCCN2CCOCC2)C=CC\3=C1/N=C(/NC(=O)C4=CN=C(N)N=C4)N5CC/N=C35	95.2	94.2	102	99.2	97.4	77.2	69.4	65.8	57.3	47.6	37.4	128	119	110	106	104	97.6	82.4	88.1	72	63	42.8	89.3	101	93.2	95.5	86.3	83	66.5	59.3	56.6	51.8	35.1
